According to US8759361B2, “2-phenoxy pyrimidinone analogues” (Neurogen Corporation, priority 2006, dated 2014):

target: T1, human capsaicin receptor (Homo sapiens, UniProt Q8NER1); assay: Calcium mobilization assay, determination of antagonist activity (Example 6); assay type: cell-based; details: cells expressing human capsaicin receptor, capsaicin-induced fluorescence response; read-out: IC50
T1 construct: expressed in transfected cells
Method: A cDNA encoding full length human capsaicin receptor (SEQ ID NO:1, 2 or 3 of U.S. Pat. No. 6,482,611) is subcloned in the plasmid pBK-CMV (Stratagene, La Jolla, Calif.) for recombinant expression in mammalian cells.
Human embryonic kidney (HEK293) cells are transfected with the pBK-CMV expression construct encoding the full length human capsaicin receptor using standard methods. The transfected cells are selected for two weeks in media containing G418 (400 μg/ml) to obtain a pool of stably transfected cells. Independent clones are isolated from this pool by limiting dilution to obtain clonal stable cell lines for use in subsequent experiments.
Cells transfected with expression plasmids (as described in Example 4) and thereby expressing human capsaicin receptor are seeded and grown to 70-90% confluency in FALCON black-walled, clear-bottomed 96-well plates (#3904, BECTON-DICKINSON, Franklin Lakes, N.J.). The culture medium is emptied from the 96 well plates and FLUO-3 AM calcium sensitive dye (Molecular Probes, Eugene, Oreg.) is added to each well (dye solution: 1 mg FLUO-3 AM, 440 μL DMSO and 440 μl 20% pluronic acid in DMSO, diluted 1:250 in Krebs-Ringer HEPES (KRH) buffer (25 mM HEPES, 5 mM KCl, 0.96 mM NaH2PO4, 1 mM MgSO4, 2 mM CaCl2, 5 mM glucose, 1 mM probenecid, pH 7.4), 50 μl diluted solution per well). Plates are covered with aluminum foil and incubated at 37° C. for 1-2 hours in an environment containing 5% CO2. After the incubation, the dye is emptied from the plates, and the cells are washed once with KRH buffer, and resuspended in KRH buffer.
To measure the ability of a test compound to agonize or antagonize a calcium mobilization response in cells expressing capsaicin receptors to capsaicin or other vanilloid agonist, the EC50 of the agonist capsaicin is first determined. An additional 20 μl of KRH buffer and 1 μl DMSO is added to each well of cells, prepared as described above. 100 μl capsaicin in KRH buffer is automatically transferred by the FLIPR instrument to each well. Capsaicin-induced calcium mobilization is monitored using either FLUOROSKAN ASCENT (Labsystems; Franklin, Mass.) or FLIPR (fluorometric imaging plate reader system; Molecular Devices, Sunnyvale, Calif.) instruments. Data obtained between 30 and 60 seconds after agonist application are used to generate an 8-point concentration response curve, with final capsaicin concentrations of 1 nM to 3 μM. KALEIDAGRAPH software (Synergy Software, Reading, Pa.) is used to fit the data to the equation: y=a*(1/(1+(b/x)^c)) to determine the 50% excitatory concentration (EC50) for the response. In this equation, y is the maximum fluorescence signal, x is the concentration of the agonist or antagonist (in this case, capsaicin), a is the Emax, b corresponds to the EC50 value and c is the Hill coefficient. Determination of Agonist Activity
Test compounds are dissolved in DMSO, diluted in 20 μl KRH buffer so that the final concentration of test compounds in the assay well is between 1 μM and 5 μM, and added to cells prepared as described above. The 96 well plates containing prepared cells and test compounds are incubated in the dark, at room temperature for 0.5 to 6 hours. It is important that the incubation not continue beyond 6 hours. Just prior to determining the fluorescence response, 100 μl capsaicin in KRH buffer at twice the EC50 concentration determined as described above is automatically added by the FLIPR instrument to each well of the 96 well plate for a final sample volume of 200 μl and a final capsaicin concentration equal to the EC50. The final concentration of test compounds in the assay wells is between 1 μM and 5 μM. […] The concentration of antagonist required to provide a 50% decrease, relative to the response observed in the presence of capsaicin and without antagonist, is the IC50 for the antagonist, and is preferably below 1 micromolar, 100 nanomolar, 10 nanomolar or 1 nanomolar.

T1 sequence (Q8NER1 whole entry): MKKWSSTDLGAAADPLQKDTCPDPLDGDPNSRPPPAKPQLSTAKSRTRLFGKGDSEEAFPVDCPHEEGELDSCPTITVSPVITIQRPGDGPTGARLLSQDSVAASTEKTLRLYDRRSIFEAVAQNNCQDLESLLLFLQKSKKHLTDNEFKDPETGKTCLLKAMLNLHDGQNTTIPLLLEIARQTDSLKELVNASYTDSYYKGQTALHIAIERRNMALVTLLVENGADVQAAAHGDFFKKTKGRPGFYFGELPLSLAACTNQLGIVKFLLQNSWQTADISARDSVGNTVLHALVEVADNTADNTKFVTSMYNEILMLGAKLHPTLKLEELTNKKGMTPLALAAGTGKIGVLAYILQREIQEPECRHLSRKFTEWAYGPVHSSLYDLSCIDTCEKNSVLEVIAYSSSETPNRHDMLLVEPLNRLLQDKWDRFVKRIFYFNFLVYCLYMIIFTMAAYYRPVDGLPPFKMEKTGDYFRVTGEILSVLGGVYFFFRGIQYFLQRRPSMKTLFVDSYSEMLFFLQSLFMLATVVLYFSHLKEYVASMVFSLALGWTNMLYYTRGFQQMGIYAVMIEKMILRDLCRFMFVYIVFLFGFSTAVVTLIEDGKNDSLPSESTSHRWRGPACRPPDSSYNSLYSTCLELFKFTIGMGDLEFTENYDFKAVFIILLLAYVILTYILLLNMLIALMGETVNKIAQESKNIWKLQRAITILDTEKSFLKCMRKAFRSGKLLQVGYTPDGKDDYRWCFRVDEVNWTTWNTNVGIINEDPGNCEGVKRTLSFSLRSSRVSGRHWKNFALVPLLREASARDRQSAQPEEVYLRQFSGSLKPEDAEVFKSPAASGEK

Row | Structure (SMILES) | IC50
1 | O=c1c2ncsc2nc(Oc2cccc(C(F)(F)F)c2)n1-c1ccc(F)cc1 [Compound 46, 6-(4-fluorophenyl)-5-(3-(trifluoromethyl)phenoxy)thiazolo[5,4-d]pyrimidin-7(6H)-one] | ≤ 100 nM
2 | Cn1cnc2c(=O)n(-c3ccc(F)cc3)c(Oc3cccc(C(F)(F)F)c3)nc21 [Compound 48, 1-(4-fluorophenyl)-9-methyl-2-[3-(trifluoromethyl)phenoxy]-1,9-dihydro-6H-purin-6-one] | ≤ 100 nM
3 | Cn1cnc2c(=O)n(-c3ccc(F)cc3)c(Oc3cc(F)cc(C(F)(F)F)c3)nc21 [Compound 49, 1-(4-fluorophenyl)-2-[3-fluoro-5-(trifluoromethyl)phenoxy]-9-methyl-1,9-dihydro-6H-purin-6-one] | ≤ 100 nM
4 | Cc1csc2c(=O)n(-c3ccc(Cl)cc3)c(Oc3ccc(F)c(F)c3F)nc12 [Compound 50, 3-(4-chlorophenyl)-7-methyl-2-(2,3,4-trifluorophenoxy)thieno[3,2-d]pyrimidin-4(3H)-one] | ≤ 100 nM
5 | Cc1csc2c(=O)n(-c3ccc(Cl)cc3)c(Oc3ccc(Cl)cc3F)nc12 [Compound 51, 2-(4-chloro-2-fluorophenoxy)-3-(4-chlorophenyl)-7-methylthieno[3,2-d]pyrimidin-4(3H)-one] | ≤ 100 nM
6 | Cc1csc2c(=O)n(-c3ccc(Cl)cc3)c(Oc3ccc(F)cc3F)nc12 [Compound 52, 3-(4-chlorophenyl)-2-(2,4-difluorophenoxy)-7-methylthieno[3,2-d]pyrimidin-4(3H)-one] | ≤ 100 nM
7 | Cc1csc2c(=O)n(-c3ccc(F)cc3)c(Oc3ccc(F)c(F)c3F)nc12 [Compound 53, 3-(4-fluorophenyl)-7-methyl-2-(2,3,4-trifluorophenoxy)thieno[3,2-d]pyrimidin-4(3H)-one] | ≤ 100 nM
8 | Cc1csc2c(=O)n(-c3ccc(F)cc3)c(Oc3ccc(Cl)cc3F)nc12 [Compound 54, 2-(4-chloro-2-fluorophenoxy)-3-(4-fluorophenyl)-7-methylthieno[3,2-d]pyrimidin-4(3H)-one] | ≤ 100 nM
9 | Cc1csc2c(=O)n(-c3ccc(F)cc3)c(Oc3c(F)ccc(F)c3F)nc12 [Compound 55, 3-(4-fluorophenyl)-7-methyl-2-(2,3,6-trifluorophenoxy)thieno[3,2-d]pyrimidin-4(3H)-one] | ≤ 100 nM
10 | Cc1cccc(Oc2nc3c(ncn3C)c(=O)n2-c2ccc(F)cc2)c1C [Compound 63, 2-(2,3-dimethylphenoxy)-1-(4-fluorophenyl)-9-methyl-1,9-dihydro-6H-purin-6-one] | ≤ 100 nM

target: VR (Homo sapiens, UniProt Q8NER1); assay: not given; details: binds to VR with no more than moderate affinity; cited from earlier work
Sequence (Q8NER1 whole entry): as above

Row | Structure (SMILES) | Ki
11 | Cl.Cl.Cl.Cl.Cl.Cl.N.N.N.N.N.N.N.N.N.N.N.N.N.N.[O-2].[O-2].[Ru+3].[Ru+3].[Ru+4] [ruthenium red] | ≥ 140000 nM
